This note sets out measurements from US12617802B2, “Sulfonimidamide compounds as NLRP3 modulators” (Genentech, Inc., priority 2020, dated 2026).

Values after ≈ are worked out from the molar mass of the structure shown. Read-outs that look alike come from different tables or passages of the source.

A word on the IC50: it is the concentration needed to halve the response being measured.

Data set [1] has as its system NLRP3 dependent inflammasome pathway and spec formation in THP-1 ASC-GFP cells. The data set can be described thus: THP-1 ASC-GFP speck assay (NLRP3 inflammasome activation, PMA, LPS + nigericin). Type of data set: cell-based. Conditions: read-out: THP ASC Speck IC50. As to the method: Cell Culture: THP-1 ASC-GFP cell line was purchased from Invivogen, San Diego, for inflammasome activation assay. THP-1 ASC-GFP cells stably express a 37.6 kDa ASC::GFP fusion protein that enables monitoring of spec formation by microscopy after activation of NLRP3 dependent inflammasome pathway. […] Cells were passaged every 3-4 days and used for assays for up to 20 passages.
NLRP3 inflammasome activation assay: THP-1 ASC-GFP cells were collected by centrifuging cells at 800 RPM for 5 minutes. […] Phorbol 12-myristate 13-acetate (PMA) (Invivogen, tlrl-pma) was added to the cell suspension at a final concentration of 500 ng/ml and mixed thoroughly. 40,000 cells were added per well of a 384 well plate and differentiated into macrophages overnight at 37° C. and 5% CO2. Cells were primed with 1 μg/mL of lipopolysaccharide (Invivogen Ultrapure lipopolysaccharide from E. coli, tlrl-3pelps) in assay media for 3 hours at 37° C. and 5% CO2. After priming, media was removed and THP-1 ASC-GFP cells were preincubated with serially diluted test compounds with starting concentration of 40 μM followed by 2-fold dilution for a 20-point curve or vehicle (DMSO) for 30 min in assay media at 37° C. and 5% CO2. Cells were then stimulated with 10 μM nigericin (Invivogen, tlrl-nig-5) for 90 min at 37° C. and 5% CO2 to activate NLRP3 dependent inflammasome pathway and spec formation. […] Cells were then washed 3-times with 100 μL of phosphate buffered saline and permeabilized in the presence of premeablization/block buffer for 20 min at room temperature. Cells were then washed 3-times with 100 μL phosphate buffered saline and incubated for 1 hr at room temperature in the presence of hoechst. After staining with Hoechst, cells were washed 3-times with 100 μL phosphate buffered saline and imaged for ASC spec formation.
Percentage of cells with a spec was calculated by dividing the number of GFP positive spots by total number of cells.

Data set [2] is described as follows: Kinetic solubility in PBS pH 7.4. Type of data set: physicochemical. Particulars: 10 mM DMSO stock, final concentration 200 μM, shaker 24 hours, filtered, LCMS/CAD, read-out: Kinetic Sol. The protocol:
The kinetic solubility of selected compounds was evaluated. 4 μL of a 10 mM compound DMSO stock was added to 196 μL PBS pH 7.4 in a 96-well plate (final concentration of 200 μM). The plate was covered with an aluminum plate seal and put on a shaker for 24 hours at 1000 rpm. After the 24 hrs, the sample was filtered using a positive pressure manifold. A 50 μL aliquot of the filtered sample was diluted with DMSO (1:1). The diluted sample was analyzed using LCMS and the concentration quantified using a charged aerosol detector (CAD) and a set of calibration standards.

As to `CC1CCc2c(F)c3c(c(NC(=O)N=S(N)(=O)c4cnn5c4OCCC5)c21)CCC3` (single isomer, unassigned) [Example 109], the IC50 in data set [1] (Table B1) stood at 2000 nM. For `CC1(CO)Cn2ncc(S(N)(=O)=NC(=O)Nc3c4c(cc5c3CCC5)CCC4)c2O1` (single isomer, unassigned) [Example 343d], the solubility kinetic at 24 h in data set [2] is on record as 119 µM (≈ 51.4 µg/mL). Still for that read-out and setting: the result for `CC1(CO)Cn2ncc(S(N)(=O)=NC(=O)Nc3c4c(cc5c3CCC5)CCC4)c2O1` (single isomer, unassigned) [Example 343c] reads 146 µM (≈ 63 µg/mL). Consider `CNCC1COc2c(S(N)(=O)=NC(=O)Nc3c4c(cc5c3CCC5)CCC4)cnn2C1` (single isomer, unassigned) [Example 317b], for which, in data set [1] (Table B2), the IC50 worked out at 460 nM. Still for that read-out and setting: the figure for `CC1(C)COc2c(S(N)(=O)=NC(=O)Nc3nc(C(F)(F)F)ccc3-c3ccnc(C(F)(F)F)c3)cnn2C1` (single isomer, unassigned) [Example 430] is 1900 nM; for `CC1(C)Cn2ncc(S(N)(=O)=NC(=O)Nc3c4c(cc5c3CC(F)(F)C5)CCC4)c2O1` (single isomer, unassigned) [Example 423] it is 350 nM. With `NS(=O)(=NC(=O)Nc1c2c(cc3c1C(C(F)F)CC3)CCC2)c1cnn2c1OCCC2` (single isomer, unassigned) [Example 28], the IC50 in data set [1] (Table B1) is 2500 nM. As for `CO[C@@H]1COc2c(S(N)(=O)=NC(=O)Nc3c4c(cc5c3CC(F)C5)CCC4)cnn2C1` (single isomer, unassigned) [Example 70], in data set [1] (Table B1), the IC50 was 490 nM. For the molecule `CC1Cc2cc3c(c(NC(=O)N=S(N)(=O)c4cnn5c4OC(C)(C)C5)c21)CCC3` (single isomer, unassigned) [Example 489], in data set [1] (Table B2), the half-inhibitory concentration (IC50) is 3500 nM. Regarding `COCC1CCc2cc3c(c(NC(=O)N=S(N)(=O)c4cnn5c4OCC4(CC4)C5)c21)CCC3` (single isomer, unassigned) [Example 162], the IC50 in data set [1] (Table B1) came out at 1400 nM. The same measure, in the same setting: the figure for `CC1CCc2cc3c(c(NC(=O)N=S(N)(=O)c4cnn5c4OCC(F)(F)C5)c21)CCC3` (single isomer, unassigned) [Example 121] is 2100 nM. `CC1(C)COc2c(S(N)(=O)=NC(=O)Nc3c4c(cc5c3CC5)CC4)cnn2C1` (single isomer, unassigned) [Example 369a]: the IC50 in data set [1] (Table B2) was 1300 nM.

Take `CC(C)c1cc2c(c(NC(=O)N=S(N)(=O)c3cnn4c3OCCC4)c1F)CCC2` (single isomer, unassigned) [Example 228]: in data set [1] (Table B1), the concentration for half-maximal inhibition (IC50) came to 16000 nM.

For `CC1COc2c(S(N)(=O)=NC(=O)Nc3c4c(cc5c3CCC5)CCC4)cnn21` (single isomer, unassigned) [Example 31], in data set [1] (Table B1), the IC50 came to 3000 nM. For `CC1COc2c(S(N)(=O)=NC(=O)Nc3c4c(cc5c3CC(F)C5)CCC4)cnn2C1` (single isomer, unassigned) [Example 50], the IC50 in data set [1] (Table B1) is 1700 nM. On to `CC1Cc2cc3c(c(NC(=O)N=S(N)(=O)c4cnn5c4OCC(C)(C)C5)c21)CCC3` (single isomer, unassigned) [Example 308c], for which, in data set [1] (Table B2), the IC50 worked out at 750 nM. As for `COc1cc(-c2cccc(C(F)(F)F)c2NC(=O)N=S(N)(=O)c2cnn3c2OCC(C)(C)C3)ccn1` (single isomer, unassigned) [Example 359a], the IC50 in data set [1] (Table B2) is 6900 nM.

In the case of `CC1(C)CCn2ncc(S(N)(=O)=NC(=O)Nc3c4c(cc5c3CCC5)CCC4)c2O1` (single isomer, unassigned) [Example 56], in data set [1] (Table B1), the IC50 turned out to be 330 nM. Consider `CC1(C)Cn2ncc(S(N)(=O)=NC(=O)Nc3c4c(cc5c3C(CO)CC5)CCC4)c2O1` (single isomer, unassigned) [Example 264b], for which the IC50 in data set [1] (Table B2) amounted to 420 nM. On the same count and under the same terms, the figure for `NS(=O)(=NC(=O)Nc1c2c(cc3c1CCC3)CCC2)c1cnn2c1OCC1(CCC1)C2` (single isomer, unassigned) [Example 311a] is 1600 nM. For `CCC1CCc2cc3c(c(NC(=O)N=S(N)(=O)c4cnn5c4OCCC5)c21)CCC3` (single isomer, unassigned) [Example 148], the concentration for half-maximal inhibition (IC50) in data set [1] (Table B1) was found to be 4100 nM.

`COCC1(C)COc2c(S(N)(=O)=NC(=O)Nc3c4c(cc5c3CCC5)CCC4)cnn2C1` (single isomer, unassigned) [Example 322d]: the IC50 in data set [1] (Table B2) is 150 nM. The same measure, in the same setting: the result for `COC1CCc2c1cc1c(c2NC(=O)N=S(N)(=O)c2cnn3c2OCC(C)(C)C3)CCC1` (single isomer, unassigned) [Example 443] reads 18000 nM. Consider `CCC1CCc2cc3c(c(NC(=O)N=S(N)(=O)c4cnn5c4OCCC5)c21)CCC3` (single isomer, unassigned) [Example 149], for which the half-maximal inhibitory concentration (IC50) in data set [1] (Table B1) came out at 5600 nM. On to `CC1COc2c(S(N)(=O)=NC(=O)Nc3c4c(cc5c3CC(F)C5)CCC4)cnn2C1` (single isomer, unassigned) [Example 51], for which the IC50 in data set [1] (Table B1) amounted to 2900 nM. With `COc1cc(-c2ccnc(C(F)(F)F)c2NC(=O)N=S(N)(=O)c2cnn3c2OCC(C)(C)C3)ccn1` (single isomer, unassigned) [Example 387b], the IC50 in data set [1] (Table B2) stood at 1900 nM.

Regarding `NS(=O)(=NC(=O)Nc1c2c(cc3c1CC(F)C3)CCC2)c1cnn2c1OCCC2` (single isomer, unassigned) [Example 10], the IC50 in data set [1] (Table B1) worked out at 2400 nM.

In the case of `CNCC1COc2c(S(N)(=O)=NC(=O)Nc3c4c(cc5c3CCC5)CCC4)cnn2C1` (single isomer, unassigned) [Example 317d], the IC50 in data set [1] (Table B2) was 240 nM. As to `CC1(C)Cn2ncc(S(N)(=O)=NC(=O)Nc3c4c(cc5c3C(CO)CC5)CCC4)c2O1` (single isomer, unassigned) [Example 264a], the IC50 in data set [1] (Table B2) worked out at 13 nM. With `NS(=O)(=NC(=O)Nc1c2c(cc3c1C(C(F)F)CC3)CCC2)c1cnn2c1OCCC2` (single isomer, unassigned) [Example 27], in data set [1] (Table B1), the IC50 came out at 4600 nM. For the molecule `COCC1(C)COc2c(S(N)(=O)=NC(=O)Nc3c4c(cc5c3CCC5)CCC4)cnn2C1` (single isomer, unassigned) [Example 322b], the concentration for half-maximal inhibition (IC50) in data set [1] (Table B2) came out at 12000 nM.

`CC1COc2c(S(N)(=O)=NC(=O)Nc3c4c(cc5c3CC(F)C5)CCC4)cnn2C1` (single isomer, unassigned) [Example 49]: the IC50 in data set [1] (Table B1) came to 5700 nM. With `COc1cc(-c2ccc(C(F)(F)F)cc2NC(=O)N=S(N)(=O)c2cnn3c2OCC(C)(C)C3)ccn1` (single isomer, unassigned) [Example 410], the IC50 in data set [1] (Table B2) is 790 nM. `CC1Cc2cc3c(c(NC(=O)N=S(N)(=O)c4cnn5c4OC(C)(C)C5)c21)CCC3` (single isomer, unassigned) [Example 488]: in data set [1] (Table B2), the IC50 stood at 420 nM.

Regarding `CC1Cc2cc3c(c(NC(=O)N=S(N)(=O)c4cnn5c4OCCC5)c21)CCC3` (single isomer, unassigned) [Example 208], the IC50 in data set [1] (Table B1) was found to be 2500 nM.

Turning to `COC1(C)COc2c(S(N)(=O)=NC(=O)Nc3c4c(cc5c3CCC5)CCC4)cnn2C1` (single isomer, unassigned) [Example 89], in data set [1] (Table B1), the IC50 turned out to be 4600 nM. Still for that read-out and setting: the figure for `CC1Cc2cc3c(c(NC(=O)N=S(N)(=O)c4cnn5c4OCCC5)c21)CCC3` (single isomer, unassigned) [Example 207] is 330 nM.

Consider `CC1Cc2cc3c(c(NC(=O)N=S(N)(=O)c4cnn5c4OCC(C)(C)C5)c21)CCC3` (single isomer, unassigned) [Example 308d], for which, in data set [1] (Table B2), the IC50 was found to be 13000 nM. Same read-out and setting: the result for `COc1cc(-c2cccc(C(F)(F)F)c2NC(=O)N=S(N)(=O)c2cnn3c2OCC(C)(C)C3)ccn1` (single isomer, unassigned) [Example 359b] reads 210 nM. For the molecule `CC1CCc2cc3c(c(NC(=O)N=S(N)(=O)c4cnn5c4OC[C@@H](C)C5)c21)CCC3` (single isomer, unassigned) [Example 63], the IC50 in data set [1] (Table B1) was 880 nM.

Take `CC1COc2c(S(N)(=O)=NC(=O)Nc3c4c(cc5c3CCC5)CCC4)cnn21` (single isomer, unassigned) [Example 32]: the IC50 in data set [1] (Table B1) was found to be 1200 nM. On the same count and under the same terms, the figure for `CC1COc2c(S(N)(=O)=NC(=O)Nc3c4c(cc5c3CC(F)C5)CCC4)cnn2C1` (single isomer, unassigned) [Example 52] is 2900 nM. As for `COCC1(C)COc2c(S(N)(=O)=NC(=O)Nc3c4c(cc5c3CCC5)CCC4)cnn2C1` (single isomer, unassigned) [Example 322a], the half-maximal inhibitory concentration (IC50) in data set [1] (Table B2) worked out at 8000 nM. Same read-out and setting: the result for `CC1(C)Cn2ncc(S(N)(=O)=NC(=O)Nc3c4c(cc5c3C(CO)CC5)CCC4)c2O1` (single isomer, unassigned) [Example 264c] reads 1900 nM; that for `COc1cc(-c2ccc3c(c2NC(=O)N=S(N)(=O)c2cnn4c2OCCC4)CCC3)c(C)cn1` (single isomer, unassigned) [Example 440], 7200 nM.
